The subject of data set [1] is Human primary myoblasts. In words: Myogenic amplification and commitment of muscle stem cells (Pax7/MyoD staining). The class given is cell-based. Conditions: dose response, donors 1 and 2 pooled, 96 hours, control DMSO 1%; for proportion of MyoD+ cells (normalized to total cell number, fold change compared to control): FIG. 1B/2B. Here is the method:
Human Skeletal Muscle Myoblasts were purchased from Lonza (https://bioscience.lonza.com). These cells were isolated from the upper arm or leg muscle tissue of normal donors and used after the second passage. Several donors were tested to ensure cell viability and purity before selecting the final donors, which are a person (refer thereafter as Donor 1), a person (refer thereafter as Donor 2) and a person (refer thereafter as Donor 3). Human primary myoblasts were seeded in 384 well plates at a density of 1′000 cells per well in skeletal muscle growth medium (SKM-M, AMSbio). For treatment, compounds were directly added to the myoblast cultures 16 hours after initial plating. All cultures were then grown for 96 hours. Cells were stained for Pax7 and MyoD expression using antibodies directed against Pax7 and MyoD and counterstained with Hoechst 33342 to visualize cell nuclei. Pax7+ cells are defined as cells that express Pax7 regardless of MyoD expression. […] Image acquisition was performed using the ImageXpress (Molecular Devices) platform. Custom module analysis based on Multi-Wavelength Cell Scoring of the MetaXpress software was used for quantification. *, **, ***, **** indicates difference from the control, One-way ANOVA, with p<0.05, p<0.01, p<0.001, p<0.0001, respectively. Data are presented as Mean+/−SEM Human primary myoblasts from different donors (donor 1, donor 2 or donor 3) were seeded in 384 well plates at a density of 1′000 cells per well in skeletal muscle growth medium (SKM-M, AMSbio). For treatment, compounds were directly added to the myoblast cultures 16 hours after initial plating. All cultures were then grown for 96 hours. Cells were stained for Pax7 and MyoD expression using antibodies directed against Pax7 and MyoD and counterstained with Hoechst 33342 to visualize cell nuclei. Pax7+ cells are defined as cells that express Pax7 regardless of MyoD expression. […] Custom module analysis based on Multi-Wavelength Cell Scoring of the MetaXpress software was used for quantification. […] Data are expressed as number of cells per arear of injured muscle.

The subject of data set [2] is PC-3 cell line (prostate adenocarcinoma). In words: Safety of compounds as non-oncogenic: cancer cell proliferation, PC-3. In kind it is cell-based, human. Conditions: FIG. 7A, serum and FGF positive controls. As to the method:
(§1) The safety of the compounds was tested in two different human cancer cell lines purchased from ATCC. FIG. 7A cell line PC-3 was of prostate/adenocarcinoma from a person, and FIG. 7B cell line PANC-1 was from a pancreatic duct epitheloid carcinoma from a person. Serum and FGF (Fibroblast Growth Factor) conditions were used as positive controls. *, **, ***, **** indicates difference from the control, One-way ANOVA, with p<0.05, p<0.01, p<0.001, p<0.0001, respectively. Data are presented as Mean+/−SEM.
(§2) The safety of the compounds were tested in two different human cancer cell lines purchased from ATCC. Serum and FGF (Fibroblast Growth Factor) conditions were used as positive controls. *, **, ***, **** indicates difference from the control, One-way ANOVA, with p<0.05, p<0.01, p<0.001, p<0.0001, respectively. Data are presented as Mean+/−SEM.
Cell line PC-3 of prostate/adenocarcinoma from a person (FIG. 7A)

Data set [3] relates to PANC-1 cell line (pancreatic duct epitheloid carcinoma). In words: Safety of compounds as non-oncogenic: cancer cell proliferation, PANC-1. As to conditions: FIG. 7B, serum and FGF positive controls. The class given is cell-based, human. Here is the method:
as §1, §2
Cell line PANC-1 was from a pancreatic duct epitheloid carcinoma from a person (FIG. 7B).

On to `NC(=O)c1cccnc1` [Nicotinamide], for which, in data set [1] (FIG. 1A), the “proportion of Pax7+ cells (normalized to total cell number, fold change compared to control)” value is “increasing the proportion of both amplifying (Pax7+) and differentiating (MyoD+) cells in a dose dependent manner”. Also, the “proportion of MyoD+ cells (normalized to total cell number, fold change compared to control)” value in data set [1] was “increasing the proportion of both amplifying (Pax7+) and differentiating (MyoD+) cells in a dose dependent manner”. Further, the “proliferation of cancer cells” value in data set [2] and in data set [3] was “no effect on the proliferation of cancer cells” throughout.
Turning to `Cc1ncc(CO)c(CO)c1O` [Pyridoxine], the “proportion of MyoD+ cells (normalized to total cell number, fold change compared to control)” value in data set [1] is on record as “increasing the proportion of differentiating (MyoD+) cells in a dose dependent manner”. Moreover, the “proliferation of cancer cells” value in data set [2] and in data set [3] was “no effect on the proliferation of cancer cells” throughout.
